Reference: patent US9693995B2, “Pharmaceutical composition for topical administration” (Ziarco Pharma Ltd., priority 2014, dated 2017)

Legend:
[1] = test system: PMA-mediated skin oedema; assay: PMA-induced inflammation in mice (ear thickness by calliper); format: in vivo, Balb/C laboratory mice
Experimental: Phorbol 12-myristate 13-acetate (PMA) is commonly used to induce inflammation and oedema of the skin of laboratory animals as a preclinical inflammation model.
In the present example PMA was dissolved in a 10% ethanol solution to a final concentration of 0.4 μg per μl. A 10 μl was applied to the ears of Balb/C laboratory mice 1 hour after topical application of 3-{4-[2-{5-chloro-1-(diphenylmethyl)-2-[2-({[2-(trifluoromethyl)benzyl]sulfonyl}amino)ethyl]-1H-indol-3-yl}ethyl]sulfonyl}phenyl}propanoic acid (Compound I) in a 10% ethanol solution at either 0.3% or 3% w/w. As a negative control the vehicle was applied without the active compound. Positive controls were indomethacin (a non-steroidal anti-inflammatory drug) and CAY10650 (a known cPLA2α inhibitor).
The level of oedema was monitored by measurement of ear thickness by calliper at intervals of 1, 3, 6 and 24 hours

[2] = target: T1, cPLA2α (Homo sapiens, UniProt P47712); conditions: cellular and enzymatic assays; cited from earlier work
T1 sequence (P47712 1-749): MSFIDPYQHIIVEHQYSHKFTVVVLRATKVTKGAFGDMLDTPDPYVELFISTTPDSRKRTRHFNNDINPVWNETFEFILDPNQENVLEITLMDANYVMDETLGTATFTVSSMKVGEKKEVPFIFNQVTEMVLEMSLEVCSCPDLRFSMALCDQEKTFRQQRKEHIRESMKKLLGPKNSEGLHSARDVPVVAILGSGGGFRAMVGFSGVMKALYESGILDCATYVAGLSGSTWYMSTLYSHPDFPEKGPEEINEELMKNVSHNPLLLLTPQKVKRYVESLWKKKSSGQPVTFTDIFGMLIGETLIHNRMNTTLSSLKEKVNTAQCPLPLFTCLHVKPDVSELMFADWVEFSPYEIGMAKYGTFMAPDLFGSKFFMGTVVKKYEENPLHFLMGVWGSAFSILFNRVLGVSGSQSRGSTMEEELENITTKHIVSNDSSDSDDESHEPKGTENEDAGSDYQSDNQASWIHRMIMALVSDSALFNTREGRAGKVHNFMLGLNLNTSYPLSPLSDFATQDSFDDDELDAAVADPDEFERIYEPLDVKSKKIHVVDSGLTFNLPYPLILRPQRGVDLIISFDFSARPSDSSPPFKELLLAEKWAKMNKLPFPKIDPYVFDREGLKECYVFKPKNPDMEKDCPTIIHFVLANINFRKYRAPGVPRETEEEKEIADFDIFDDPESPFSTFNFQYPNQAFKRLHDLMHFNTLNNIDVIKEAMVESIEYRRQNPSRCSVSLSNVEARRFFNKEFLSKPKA

[3] = Small scale in vitro permeation/penetration experiment, Franz diffusion cell; format: in vitro ADME, human
Excerpt: Commonly, in vitro skin permeation experiments involve the use of a diffusion cell designed to mimic the physiological and anatomical conditions of skin in situ. The model used in this experiment was the Franz diffusion cell (Finnin et al. Topical and Transdermal Drug Delivery 2012: 85-100, Benson and Watkinson (Eds), incorporated herein by reference). Skin prepared as described below was positioned between the two halves of the cell with the Stratum corneum facing the donor compartment allowing for drug application. The aim of the work was to compare the drug concentrations permeating into and across dermatomed human skin when applied from different formulations/solvent systems. […]
Two solvent systems were selected for a small scale in vitro drug permeation study and was dosed as described below: • (i) The cells were assembled as described above. • (ii) Nine cells were assembled. Two solvent system (n=3), respective placebo solvent system (n=1) and a blank cell (n=1) were assessed during the feasibility experiment. • (iii) The selected solvent systems (6 mg) were applied directly to the surface of the skin with a positive displacement pipette (resulting in a dose of approximately 10 mg/cm^2). […] Weights and volumes applied (to ensure a 6 mg dose) were recorded. • (iv) Receiver fluid (200 μL) was removed at the following time points t=0, 1, 2, 4, 6, 24, 30 and 48 h. […]

[4] = test system: PLA2; conditions: read-out: IC50, inhibition of PLA2 activity; acid extracted intact human neutrophil homogenate; Marshall et al. 1995; cited from earlier work

O=C(O)CCc1ccc(S(=O)(=O)CCc2c(CCNS(=O)(=O)Cc3ccccc3C(F)(F)F)n(C(c3ccccc3)c3ccccc3)c3ccc(Cl)cc23)cc1 [Compound I]
efficacy against PMA-mediated skin oedema relative to positive control ([1]; topical Compound I versus orally-dosed indomethacin): comparable to orally-dosed indomethacin | reduction in PMA-mediated skin oedema ([1]; topical, 0.3% or 3% w/w in 10% ethanol solution, 1 hour before PMA on ears, ear thickness at 1, 3, 6 and 24 hours): dose-dependent reduction | inhibition of cPLA2α activity (potency in words) [2]: sub-low nanomolar inhibitor | total recovery of Compound I ([3]; for each solvent system applied (SS1, SS2), after t=48 h, single skin donor): 90.00-109.72 % of the applied dose | Compound I detected in the receiver fluid ([3]; solvent systems SS1 and SS2, 48 h experiment, irrespective of sample volume (200 μL, 1.5 mL), receiver fluid EtOH 20% v/v in water): not detected

O=C(O)c1ccccc1Oc1ccc(C(F)(F)F)cc1NS(=O)(=O)c1cc(C(F)(F)F)cc(C(F)(F)F)c1 [SB 203347]
IC50 [4]: 4.7 µM
